Literature values as cited in patent US20140371717A1, “DRUG DELIVERY MEDICAL DEVICE” (Micell Technologies, Inc., priority 2011, published 2014).

Tests used:
FKBP12 = FKBP12 (Homo sapiens, UniProt P62942)
[1] = value in μM

Chain of FKBP12 (P62942 whole entry, species assumed): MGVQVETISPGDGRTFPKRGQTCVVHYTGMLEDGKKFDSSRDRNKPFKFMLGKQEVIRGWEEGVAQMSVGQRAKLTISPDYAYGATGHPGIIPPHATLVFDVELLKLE

Compound | FKBP12 binding (FKBP12) [nM] | FKBP12 binding (nM) (FKBP12) | Antiproliferative potency (nM) [1]
CO[C@H]1C[C@@H]2CC[C@@H](C)[C@@](O)(O2)C(=O)C(=O)N2CCCC[C@H]2C(=O)O[C@H]([C@H](C)C[C@@H]2CC[C@@H](OCCO)[C@H](OC)C2)CC(=O)[C@H](C)/C=C(\C)[C@@H](O)[C@@H](OC)C(=O)[C@H](C)C[C@H](C)/C=C/C=C/C=C/1C [Everolimus, 40-O-(2-Hydroxyethyl)rapamycin] | 1.8 to 2.6 |  | 
CC[C@@H]1/C=C(\C)C[C@H](C)C[C@H](OC)[C@H]2O[C@@](O)(C(=O)C(=O)N3CCCC[C@H]3C(=O)O[C@H](/C(C)=C/[C@@H]3CC[C@H](Cl)[C@H](OC)C3)[C@H](C)[C@@H](O)CC1=O)[C@H](C)C[C@@H]2OC [Pimecrolimus] |  | about 1.2 nM | about 1 μM
C=CC[C@@H]1/C=C(\C)C[C@H](C)C[C@H](OC)[C@H]2O[C@@](O)(C(=O)C(=O)N3CCCC[C@H]3C(=O)O[C@H](/C(C)=C/[C@@H]3CC[C@@H](O)[C@H](OC)C3)[C@H](C)[C@@H](O)CC1=O)[C@H](C)C[C@@H]2OC [Tacrolimus] | 0.2 to 0.4 |  | 
CO[C@H]1C[C@@H]2CC[C@@H](C)[C@@](O)(O2)C(=O)C(=O)N2CCCC[C@H]2C(=O)O[C@H]([C@H](C)C[C@@H]2CC[C@@H](OC(=O)C(C)(CO)CO)[C@H](OC)C2)CC(=O)[C@H](C)/C=C(\C)[C@@H](O)[C@@H](OC)C(=O)[C@H](C)C[C@H](C)/C=C/C=C/C=C/1C [Temsirolimus, 42-[3-hydroxy-2-(hydroxymethyl)-2-methylpropanoate]rapamycin] |  | about the same as Sirolimus | 
CO[C@H]1C[C@@H]2CC[C@@H](C)[C@@](O)(O2)C(=O)C(=O)N2CCCC[C@H]2C(=O)O[C@H]([C@H](C)C[C@@H]2CC[C@H](n3cnnn3)[C@H](OC)C2)CC(=O)[C@H](C)/C=C(\C)[C@@H](O)[C@@H](OC)C(=O)[C@H](C)C[C@H](C)/C=C/C=C/C=C/1C [Zotarolimus] | 2.0 to 3.2 |  | 
